Key:
human GATA2 = target: T1, human GATA2 (Homo sapiens, UniProt P23769); assay: GATA2-dependent reporter assay in IHH cells; format: cell-based; conditions: GATA-Luc reporter, 48 h
T1 construct: expressed in transfected cells; host or cells: IHH
T1 sequence (P23769 1-480): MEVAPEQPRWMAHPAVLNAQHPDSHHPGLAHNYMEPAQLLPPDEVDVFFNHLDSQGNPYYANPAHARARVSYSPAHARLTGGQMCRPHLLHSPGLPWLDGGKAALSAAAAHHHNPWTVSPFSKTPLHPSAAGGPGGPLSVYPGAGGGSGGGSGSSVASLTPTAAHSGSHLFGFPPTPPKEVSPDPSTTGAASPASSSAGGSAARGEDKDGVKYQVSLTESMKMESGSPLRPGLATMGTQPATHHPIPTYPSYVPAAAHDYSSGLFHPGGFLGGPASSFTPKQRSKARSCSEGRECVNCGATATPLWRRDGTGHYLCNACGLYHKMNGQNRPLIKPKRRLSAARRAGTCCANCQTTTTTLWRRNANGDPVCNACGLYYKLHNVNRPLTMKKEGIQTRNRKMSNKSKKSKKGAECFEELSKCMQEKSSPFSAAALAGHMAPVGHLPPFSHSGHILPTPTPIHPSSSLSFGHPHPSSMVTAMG
Protocol: K7174 is a known GATA2 inhibitor. The IHH cells were transiently transfected with empty vector (for the NT) or human GATA2-expressing plasmid as well as pRL-TK (internal control) and GATA-Luc reporter plasmids. Cells were exposed to DMSO vehicle or compounds for 48 h. Experiments were in triplicate.

hSTING and/or mSTING = assay: hSTING- or mSTING-dependent ISRE-luc reporter assay in 293T cells; format: cell-based; conditions: 24 hours
Protocol: ISRE-luc (reporter), pRL-TK (internal control) and hSTING- or mSTING-expressing plasmids were transiently transfected into 293T cells. Cells were exposed to DMSO vehicle control or compounds for 24 hours. Experiments were done in triplicate.

SMILES	GATA2 inhibition in GATA2-dependent reporter assay (human GATA2)	further results
O=C(/C=C(/C=C/c1cccc(C(F)(F)F)c1)c1ccccc1)N1CCC(O)(c2ccccc2)CC1 [Compound 872]	GATA2 inhibitors	–
COc1ccc(CC/C(=C/C(=O)N2CCC(O)(c3ccccc3)CC2)c2ccccc2)cc1 [Compound 858]	GATA2 inhibitors	–
O=C1Nc2ccccc2C1CCc1nc(-c2cccc(F)c2)c(-c2cccc(F)c2)o1 (centres unmarked) [Compound 866]	GATA2 inhibitors	–
Fc1cccc(-c2[nH]c(Cc3c[nH]c4ccccc34)nc2-c2ccco2)c1 [Compound 839]	GATA2 inhibitors	–
COc1cccc(-c2nc(Cc3c[nH]c4ccccc34)oc2-c2cccc(O)c2)c1 [Compound 719]	GATA2 inhibitors	–
COc1ccc(/C(=C\C(=O)N2CCC(O)(c3ccccc3)CC2)CCc2ccccc2)cc1 [Compound 871]	GATA2 inhibitors	–
COc1ccc(/C(=C\C(=O)N2CCC(O)(c3ccccc3)CC2)CCc2ccccc2)cc1OC [Compound 883]	GATA2 inhibitors	–
Cc1ccc(/C(=C\C(=O)N2CCC(O)(c3ccccc3)CC2)CCc2cccc(F)c2)cc1 [Compound 882]	GATA2 inhibitors	–
c1ccc(-c2nc(CCCc3c[nH]c4ccccc34)oc2-c2ccccc2)cc1 [Compound 632]	GATA2 inhibitors	–
O=C(/C=C(/CCc1cccc(F)c1)c1ccccc1)N1CCC(O)(c2ccccc2)CC1 [Compound 860]	GATA2 inhibitors	–
C(=C\c1cccs1)/c1nc(-c2ccccc2)c(-c2ccccc2)o1 [Compound 685]	GATA2 inhibitors	–
O=C(/C=C(/CCc1ccccc1)c1ccccc1)N1CCC(O)(c2ccccc2)CC1 [Compound 859]	GATA2 inhibitors	–
O=C(C/C(=C\c1ccccc1)c1ccccc1)N1CCC(O)(c2ccccc2)CC1 [Compound 880]	GATA2 inhibitors	–
Cc1ccc(/C(=C\C(=O)N2CCC(O)(c3ccccc3)CC2)CCc2ccccc2)cc1 [Compound 870]	GATA2 inhibitors	–
COc1cccc(/C=C/c2nc(-c3ccccc3)c(-c3ccccc3)o2)c1 [Compound 684]	GATA2 inhibitors	–
O=C(/C=C(/CCc1cccc(C(F)(F)F)c1)c1ccccc1)N1CCC(O)(c2ccccc2)CC1 [Compound 868]	GATA2 inhibitors	–
c1ccc(-c2nc(CCc3c[nH]c4ccccc34)oc2-c2ccccc2)cc1 [Compound 631]	GATA2 inhibitors	–
O=C(/C=C(/Cc1ccccc1)c1ccccc1)N1CCC(O)(c2ccccc2)CC1 [Compound 881]	GATA2 inhibitors	–
O=C(/C=C(/CCc1ccccc1)c1cccc(C(F)(F)F)c1)N1CCC(O)(c2ccccc2)CC1 [Compound 869]	GATA2 inhibitors	–
Oc1cccc(N2CCN(Cc3nc(-c4cccc(F)c4)c(-c4cccc(F)c4)[nH]3)CC2)c1 [Compound 1181]	–	activation of hSTING and/or mSTING in ISRE-luc reporter assay (hSTING and/or mSTING; 20 μM): activate hSTING and/or mSTING
Fc1cccc(-c2nc(CN3CCC(c4cccc(C(F)(F)F)c4)CC3)[nH]c2-c2cccc(F)c2)c1 [Compound 1173]	–	activation of hSTING and/or mSTING in ISRE-luc reporter assay (hSTING and/or mSTING; 10 μM): activate hSTING and/or mSTING
O=C(c1ccccc1F)N1CCN(Cc2nc(-c3cccc(F)c3)c(-c3cccc(F)c3)[nH]2)CC1 [Compound 1178]	–	activation of hSTING and/or mSTING in ISRE-luc reporter assay (hSTING and/or mSTING; 10 μM): activate hSTING and/or mSTING
Fc1cccc(-c2nc(CN3CCC(c4c[nH]c5ccccc45)CC3)[nH]c2-c2cccc(F)c2)c1 [Compound 1137]	–	activation of hSTING and/or mSTING in ISRE-luc reporter assay (hSTING and/or mSTING): activate hSTING and/or mSTING

Source: patent US10844051B2, “Substituted oxazoles for the treatment of cancer” (THE ROYAL INSTITUTION FOR THE ADCANCEMENT OF …, priority 2015, dated 2020)
